Test: xn = mol fraction of the nth substance listed
Conditions: 93 kPa, Liquid; for viscosity: Concentric cylinders viscometry; for mass density: Vibrating tube method

c1ccc(Oc2ccccc2)cc1 [diphenyl ether] + c1ccc(-c2ccccc2)cc1
Conditions | mass density, x1 = 0.55 [kg/m3] | mass density, x1 = 0.705 [kg/m3] | mass density, x1 = 0.85 [kg/m3] | mass density, x1 = 1 [kg/m3] | viscosity, x1 = 0.55 [mPa·s] | viscosity, x1 = 0.705 [mPa·s] | viscosity, x1 = 0.85 [mPa·s] | viscosity, x1 = 1 [mPa·s]
288.15 K | – | 1066.7 | – | – | – | 5.12 | – | –
293.15 K | – | 1062.4 | – | – | – | 4.39 | – | –
298.15 K | – | 1058.2 | 1064.2 | – | – | 3.81 | 3.8 | –
303.15 K | – | 1053.9 | 1060 | 1065.5 | – | 3.34 | 3.34 | 3.33
308.15 K | 1043.7 | 1049.7 | 1055.7 | 1061.2 | 2.99 | 2.96 | 2.96 | 2.96
313.15 K | 1039.5 | 1045.4 | 1051.3 | 1056.9 | 2.7 | 2.64 | 2.65 | 2.65
323.15 K | 1031.1 | 1037 | 1042.7 | 1048.2 | 2.15 | 2.15 | 2.16 | 2.17
333.15 K | 1022.6 | 1028.5 | 1034.1 | 1039.6 | 1.79 | 1.79 | 1.81 | 1.82
343.15 K | 1014.1 | 1020 | 1025.5 | 1030.9 | 1.52 | 1.52 | 1.54 | 1.54
353.15 K | 1005.6 | 1011.5 | 1016.9 | 1022.3 | 1.31 | 1.31 | 1.32 | 1.33
363.15 K | 997.5 | 1003 | 1008.3 | 1013.7 | 1.14 | 1.14 | 1.15 | 1.16
373.15 K | 989.2 | 994.9 | 999.8 | – | 1 | 1.01 | 1.01 | 1.03
